{
  "source": "paper PMC7243443",
  "about": "(Journal of natural products, 2020)",
  "key": {"[1]": {"tested_on": "Na^+/K^+-ATPase (adenosine 5′-triphosphatase from porcine cerebral cortex)", "assay": "Na+/K+-ATPase activity assay", "assay_type": "biochemical", "conditions": "7: at concentrations less than 100 μM"}, "[2]": {"tested_on": "glucose uptake in H1299 human lung cancer cells", "assay": "Glucose uptake assay", "assay_type": "cell-based", "conditions": "30 μM, 15 min"}, "ipsilateral kidney": {"tested_on": "ipsilateral kidney", "conditions": "12–27 kg female dogs, renal-artery infusion, 0.05–0.08 mg/kg; cited from earlier work"}, "[3]": {"tested_on": "small panel of human cancer cell lines", "conditions": "read-out: IC50, cytotoxicity against a small panel of human cancer cell lines; cited from earlier work"}},
  "data": [
    {"smiles": "C[C@H]1O[C@@H](O[C@H]2[C@@H](O)C[C@H](O[C@H]3[C@@H](O)C[C@H](O[C@H]4CC[C@@]5(C)[C@H](CC[C@@H]6[C@@H]5C[C@@H](O)[C@]5(C)[C@@H](C7=CC(=O)OC7)CC[C@]65O)C4)O[C@@H]3C)O[C@@H]2C)C[C@H](O)[C@@H]1O", "note": "[compound 1, (+)-Digoxin]", "values": [
      {"measurement": "inhibition of Na+/K+-ATPase activity (in words)", "setting": "[1]", "value": "inhibited Na^+/K^+-ATPase activity in a concentration-dependent manner"},
      {"measurement": "inhibition of glucose uptake / glucose transport (in words)", "setting": "[2]", "value": "did not inhibit glucose uptake"},
      {"measurement": "inhibition of glucose uptake / glucose transport (in words)", "setting": "[2]; listed as (+)-digoxin", "value": "did not inhibit glucose transport"},
      {"measurement": "excretion of Ca2+, Mg2+, and PO4 3- by the ipsilateral kidney (in words)", "setting": "ipsilateral kidney", "value": "enhanced"},
      {"measurement": "maximal transport of glucose (in words)", "setting": "ipsilateral kidney", "value": "no change in the maximal transport of glucose"},
      {"measurement": "IC50", "setting": "[3]", "value": "40 to 200", "unit": "nM"}
    ]}
  ]
}
